27 compounds from patent US20240261249A1, “NOVEL SQUARAMIDE DERIVATIVE AND USE THEREOF” (PUSAN NATIONAL UNIVERSITY INDUSTRY-UNIVERSITY COOPERATION …, priority 2021, published 2024) can be followed below.

Each structure is given as a SMILES string.

One test relates to Phospho-eIF2α (Ser51). In words: Phospho-eIF2α (Ser51) Sandwich ELISA in K562 cells. The note with it: Homo sapiens, K562, 6 h, serum-free RPMI, 10 μM compound, control = 1, read-out: eIF2α phosphorylation, absorbance standardized to control (DMSO-treated) set to 1, at 10 μM. The format is cell-based. Here is the method: Pathscan Phospho-eIF2α (Ser51) Sandwich ELISA Kit #7286 from Cell signaling was used. The K562 cell line was cultured in serum-free RPMI medium at 37° C. in the presence of 5% CO2. Cells were treated with test compounds at a concentration of 10 μM. Six hours after compound treatment, the cells were lysed with a lysis buffer included in the kit to obtain 50 μg of protein by quantification. Afterwards, ELISA assay was performed according to the manufacturer's protocol to obtain absorbance. The absorbance for each obtained compound was standardized to a value of which the control (DMSO-treated) is set to 1.
(An ELISA detects its analyte on a solid surface through an enzyme-linked reagent.)
`CC(C)(C)c1ccc(Nc2c(N[C@H]3CC[C@H](Oc4ccc(C#N)cc4)CC3)c(=O)c2=O)cc1` [Compound 51, 4-(((1,4-trans)-4-((2-((4-(tert-Butyl)phenyl)amino)-3,4-dioxocyclobut-1-en-1-yl)amino)cyclohexyl)oxy)benzonitrile]: the activity at 10 µM came out at 182%.
Same read-out and setting: under `CC(C)(C)c1ccc(Nc2c(N[C@H]3CC[C@H](Oc4ccc([N+](=O)[O-])cc4)CC3)c(=O)c2=O)cc1` [Compound 52, 3-((4-(tert-Butyl)phenyl)amino)-4-(((1,4-trans)-4-(4-nitrophenoxy)cyclohexyl)amino)cyclobut-3-ene-1,2-dione] stands 77%.
On the same count and under the same terms, in the case of `CC(C)(C)c1ccc(Nc2c(N[C@H]3CC[C@H](Oc4ccc(S(C)(=O)=O)cc4)CC3)c(=O)c2=O)cc1` [Compound 53, 3-((4-(tert-Butyl)phenyl)amino)-4-(((1,4-trans)-4-(4-(methylsulfonyl)phenoxy)cyclohexyl)amino)cyclobut-3-ene-1,2-dione] it was 133%.
Still for that read-out and setting: in the case of `COc1ccc(Nc2c(N[C@H]3CC[C@H](Oc4ccc(C(F)(F)F)cc4)CC3)c(=O)c2=O)cc1` [Compound 54, 3-((4-Methoxyphenyl)amino)-4-(((1,4-trans)-4-(4-(trifluoromethyl)phenoxy)cyclohexyl)amino)cyclobut-3-ene-1,2-dione] it was 182%; in that of `COc1ccc(Nc2c(N[C@H]3CC[C@H](Oc4ccc(C#N)cc4)CC3)c(=O)c2=O)cc1` [Compound 55, 4-(((1,4-trans)-4-((2-((4-Methoxyphenyl)amino)-3,4-dioxocyclobut-1-en-1-yl)amino)cyclohexyl)oxy)benzonitrile], 84%.
Take `COc1ccc(Nc2c(N[C@H]3CC[C@H](Oc4ccc([N+](=O)[O-])cc4)CC3)c(=O)c2=O)cc1` [Compound 56, 3-((4-Methoxyphenyl)amino)-4-(((1,4-trans)-4-(4-nitrophenoxy)cyclohexyl)amino)cyclobut-3-ene-1,2-dione]: the activity at 10 µM was 227%.
Still for that read-out and setting: under `COc1ccc(Nc2c(N[C@H]3CC[C@H](Oc4ccc(S(C)(=O)=O)cc4)CC3)c(=O)c2=O)cc1` [Compound 57, 3-((4-Methoxyphenyl)amino)-4-(((1,4-trans)-4-(4-(methylsulfonyl)phenoxy)cyclohexyl)amino)cyclobut-3-ene-1,2-dione] stands 211%; under `COC(=O)c1ccc(Nc2c(N[C@H]3CC[C@H](Oc4ccc(C(F)(F)F)cc4)CC3)c(=O)c2=O)cc1` [Compound 58, Methyl 4-((3,4-dioxo-2-(((1,4-trans)-4-(4-(trifluoromethyl)phenoxy)cyclohexyl)amino)cyclobut-1-en-1-yl)amino)benzoate], 97%; under `COC(=O)c1ccc(Nc2c(N[C@H]3CC[C@H](Oc4ccc(C#N)cc4)CC3)c(=O)c2=O)cc1` [Compound 59, Methyl 4-((2-(((1,4-trans)-4-(4-cyanophenoxy)cyclohexyl)amino)-3,4-dioxocyclobut-1-en-1-yl)amino)benzoate], 83%.
As to `COC(=O)c1ccc(Nc2c(N[C@H]3CC[C@H](Oc4ccc([N+](=O)[O-])cc4)CC3)c(=O)c2=O)cc1` [Compound 60, Methyl 4-((2-(((1,4-trans)-4-(4-nitrophenoxy)cyclohexyl)amino)-3,4-dioxocyclobut-1-en-1-yl)amino)benzoate], the activity at 10 µM stood at 97%.
The same measure, in the same setting: in the case of `COC(=O)c1ccc(Nc2c(N[C@H]3CC[C@H](Oc4ccc(S(C)(=O)=O)cc4)CC3)c(=O)c2=O)cc1` [Compound 61, Methyl 4-((2-(((1,4-trans)-4-(4-(methylsulfonyl)phenoxy)cyclohexyl)amino)-3,4-dioxocyclobut-1-en-1-yl)amino)benzoate] it was 148%; in that of `O=c1c(Nc2ccccc2F)c(N[C@H]2CC[C@H](Oc3ccc(C(F)(F)F)cc3)CC2)c1=O` [Compound 62, 3-((2-Fluorophenyl)amino)-4-(((1,4-trans)-4-(4-(trifluoromethyl)phenoxy)cyclohexyl)amino)cyclobut-3-ene-1,2-dione], 182%; in that of `N#Cc1ccc(O[C@H]2CC[C@H](Nc3c(Nc4ccccc4F)c(=O)c3=O)CC2)cc1` [Compound 63, 4-(((1,4-trans)-4-((2-((2-Fluorophenyl)amino)-3,4-dioxocyclobut-1-en-1-yl)amino)cyclohexyl)oxy)benzonitrile], 75%.
On the same count and under the same terms, in the case of `O=c1c(Nc2ccccc2F)c(N[C@H]2CC[C@H](Oc3ccc([N+](=O)[O-])cc3)CC2)c1=O` [Compound 64, 3-((2-Fluorophenyl)amino)-4-(((1,4-trans)-4-(4-nitrophenoxy)cyclohexyl)amino)cyclobut-3-ene-1,2-dione] it was 133%; in that of `O=c1c(Nc2ccccc2Cl)c(N[C@H]2CC[C@H](Oc3ccc(C(F)(F)F)cc3)CC2)c1=O` [Compound 66, 3-((2-Chlorophenyl)amino)-4-(((1,4-trans)-4-(4-(trifluoromethyl)phenoxy)cyclohexyl)amino)cyclobut-3-ene-1,2-dione], 159%.
Still for that read-out and setting: under `N#Cc1ccc(O[C@H]2CC[C@H](Nc3c(Nc4ccccc4Cl)c(=O)c3=O)CC2)cc1` [Compound 67, 4-(((1,4-trans)-4-((2-((2-Chlorophenyl)amino)-3,4-dioxocyclobut-1-en-1-yl)amino)cyclohexyl)oxy)benzonitrile] stands 199%; under `O=c1c(Nc2ccccc2Cl)c(N[C@H]2CC[C@H](Oc3ccc([N+](=O)[O-])cc3)CC2)c1=O` [Compound 68, 3-((2-Chlorophenyl)amino)-4-(((1,4-trans)-4-(4-nitrophenoxy)cyclohexyl)amino)cyclobut-3-ene-1,2-dione], 209%; under `CS(=O)(=O)c1ccc(O[C@H]2CC[C@H](Nc3c(Nc4ccccc4Cl)c(=O)c3=O)CC2)cc1` [Compound 69, 3-((2-Chlorophenyl)amino)-4-(((1,4-trans)-4-(4-(methylsulfonyl)phenoxy)cyclohexyl)amino)cyclobut-3-ene-1,2-dione], 101%.
Turning to `CS(=O)(=O)c1ccc(O[C@H]2CC[C@H](Nc3c(Nc4ccccc4C(F)(F)F)c(=O)c3=O)CC2)cc1` [Compound 73, 3-(((1,4-trans)-4-(4-(Methylsulfonyl)phenoxy)cyclohexyl)amino)-4-((2-(trifluoromethyl)phenyl)amino)cyclobut-3-ene-1,2-dione], the activity at 10 µM was determined as 84%.
As for `CC(C)(C)c1ccccc1Nc1c(N[C@H]2CC[C@H](Oc3ccc(C#N)cc3)CC2)c(=O)c1=O` [Compound 75, 4-(((1,4-trans)-4-((2-((2-(tert-Butyl)phenyl)amino)-3,4-dioxocyclobut-1-en-1-yl)amino)cyclohexyl)oxy)benzonitrile], the activity at 10 µM worked out at 162%.
Take `CC(C)(C)c1ccccc1Nc1c(N[C@H]2CC[C@H](Oc3ccc([N+](=O)[O-])cc3)CC2)c(=O)c1=O` [Compound 76, 3-((2-(tert-Butyl)phenyl)amino)-4-(((1,4-trans)-4-(4-nitrophenoxy)cyclohexyl)amino)cyclobut-3-ene-1,2-dione]: the activity at 10 µM came to 139%.
Same read-out and setting: in the case of `COc1ccccc1Nc1c(N[C@H]2CC[C@H](Oc3ccc(C(F)(F)F)cc3)CC2)c(=O)c1=O` [Compound 78, 3-((2-Methoxyphenyl)amino)-4-(((1,4-trans)-4-(4-(trifluoromethyl)phenoxy)cyclohexyl)amino)cyclobut-3-ene-1,2-dione] it was 213%.
On the same count and under the same terms, in the case of `COc1ccccc1Nc1c(N[C@H]2CC[C@H](Oc3ccc(C#N)cc3)CC2)c(=O)c1=O` [Compound 79, 4-(((1,4-trans)-4-((2-((2-Methoxyphenyl)amino)-3,4-dioxocyclobut-1-en-1-yl)amino)cyclohexyl)oxy)benzonitrile] it was 238%; in that of `COc1ccccc1Nc1c(N[C@H]2CC[C@H](Oc3ccc([N+](=O)[O-])cc3)CC2)c(=O)c1=O` [Compound 80, 3-((2-Methoxyphenyl)amino)-4-(((1,4-trans)-4-(4-nitrophenoxy)cyclohexyl)amino)cyclobut-3-ene-1,2-dione], 133%; in that of `COc1ccccc1Nc1c(N[C@H]2CC[C@H](Oc3ccc(S(C)(=O)=O)cc3)CC2)c(=O)c1=O` [Compound 81, 3-((2-Methoxyphenyl)amino)-4-(((1,4-trans)-4-(4-(methylsulfonyl)phenoxy)cyclohexyl)amino)cyclobut-3-ene-1,2-dione], 152%.
Still for that read-out and setting: under `COc1ccccc1Nc1c(N[C@H]2CC[C@H](Oc3ccc(S(N)(=O)=O)cc3)CC2)c(=O)c1=O` [Compound 82, 4-(((1,4-trans)-4-((2-((2-Methoxyphenyl)amino)-3,4-dioxocyclobut-1-en-1-yl)amino)cyclohexyl)oxy)benzenesulfonamide] stands 136%.

The same test, now with this note: serum-free RPMI, 10 μM compound, 6 hours, control = 1.
Consider `CS(=O)(=O)c1ccc(O[C@H]2CC[C@H](Nc3c(Nc4ccccc4F)c(=O)c3=O)CC2)cc1` [Compound 65, 3-((2-Fluorophenyl)amino)-4-(((1,4-trans)-4-(4-(methylsulfonyl)phenoxy)cyclohexyl)amino)cyclobut-3-ene-1,2-dione], for which the “eIF2α phosphorylation, absorbance standardized to control (DMSO-treated) set to 1, at 10 μM” value amounted to 1.07.
